# Assay results from patent publication US11013745B2, “Triazolopyrimidine, triazolopyridine compounds, and the composition thereof for treating PRC2-mediated diseases” (SHANGHAI INSTITUTE OF MATERIA MEDICA, CHINESE ACADEMY OF …, priority 2017, dated 2021).
# How the values were obtained:
# [1] = Liver microsomal stability (rat); type: in vitro ADME
# Summary of the method: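 Human, mouse and rat liver microsomes were incubated with NADPH and MgCl2 in 0.1 M Tris pH 7.4, with compound at a 0.2 μM working solution. Remaining compound was quantified by LC/MS over the incubation time. The slope of log remaining versus time gave Clint, which was scaled to predicted Cl, Clhep and % MF.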
# [2] = Liver microsomal stability (mouse); type: in vitro ADME
# [3] = system: Pfeiffer cells; experiment: Pfeiffer cell growth inhibition in a long term (11 days), CellTiter-Glo; type: cell-based, Human; settings: Homo sapiens, 264 h, 11 days, read-out: Experiment on Pfeiffer cell growth inhibition in a long term (11 days IC50)
# Summary of the method: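 Exponentially growing cells seeded at 1*10E5 cells/mL and treated the same day with a concentration range. Media and compound were refreshed at days 4 and 7. Viability was read by CellTiter-Glo after 11 days and GI50 values were derived.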
smiles,measurement,setting,value
CS(=O)(=O)N1CC=C(c2cnc(NCc3c(F)ccc4c3CCO4)n3cnnc23)CC1 [E-Y13],Clearance rate in vivo Clint In Vivo Extpl,[1]; rat liver microsomes,15.9 mL/min
same,Intrinsic clearance rate in vivo Clint In Vitro,[1]; rat liver microsomes,35.2 mL/min/gprot
same,Liver clearance rate Clint Hep In Vivo Extpl,[1]; rat liver microsomes,8.85 mL/min
same,Metabolic bioavailability MF %,[1]; rat liver microsomes,53.9%
same,half-life,"[1]; rat, liver microsomes, pH 7.4, rat liver microsomes, read-out: Half life T-half",55.2 min
same,Clearance rate in vivo Clint In Vivo Extpl,[2]; mouse liver microsomes,1.50 mL/min
same,Intrinsic clearance rate in vivo Clint In Vitro,[2]; mouse liver microsomes,22.2 mL/min/gprot
same,Liver clearance rate Clint Hep In Vivo Extpl,[2]; mouse liver microsomes,1.00 mL/min
same,Metabolic bioavailability MF %,[2]; mouse liver microsomes,66.7%
same,half-life,"[2]; mouse, liver microsomes, pH 7.4, mouse liver microsomes, read-out: Half life T-half",94.6 min
same,IC50,[3],3.2 nM
